“Also recorded” adds a separate entry of the source.
Experiments:
airway neutrophilia = conditions: in vivo; cited from earlier work
human C3aR = human C3aR (Homo sapiens, UniProt Q16581); conditions: cited from earlier work
[1] = tested on: murine oxygen-induced retinopathy (OIR); test: Murine OIR, SB290157 intraperitoneal just prior to 75% oxygen, preservation of capillary bed; assay type: in vivo, mouse; conditions: 2-5 mg/kg i.p. just prior to 75% oxygen DOL 7-12; vs sham saline injected oxygen-exposed litter mates
Experimental: Murine Model of Oxygen-Induced Retinopathy (OIR): In this regard we reported the role of active C3a in the OIR (15). C57BL/6J mice were obtained from Jackson Laboratories. After birth the litter of mice were nursed by their dam in a room air environment from day of life (DOL) 0 to DOL 6. On DOL 7 the litter were separated in half. One half were placed with their nursing dam in a custom made incubator from DOL 7 through DOL 12 ([…]) with the oxygen concentration maintained at 75% measured twice daily. The other half of the litter were raised in room air as controls. Dams were replaced every 24 hours in the incubator. […]
After a rinse, the retinas were permeabilized with 0.1% Triton X100 and stained with Alexa Fluor 488-conjugated isolectin GS-IB4, followed by blocking with 5% donkey serum. […] Images were obtained digitally with a fluorescence microscope and a digital camera. […]
For a given control half litter the areal extent of total destruction can be estimated, in a non-limiting example from the area extending from optic nerve to mid periphery of the retina. For the SB290157 treated animals the measured area of destruction can be estimated, in a non-limiting example from the area extending from optic nerve to mid periphery of the retina. […] The results of this experiment are measured in prevention of capillary loss. […]

[2] = tested on: murine oxygen-induced retinopathy (OIR); test: Murine oxygen-induced retinopathy (OIR), SB290157 injected intraperitoneally on DOL 5, retinal vasculature pattern on DOL 17; assay type: in vivo; conditions: 1 mg/kg i.p. DOL 5
Experimental: litters of new born mice were divided into 4 groups. On Day of Life (DOL) 5, SB290157 1 mg per kilogram body weight is injected intraperitoneally into mice in Group 1 and Group 3; same volume solvent without SB290157 is injected intraperitoneally into mice in Group 2 and Group 4. Mice from group 1 and 2 are raised in room air all the time, but mice from group 3 and 4 are raised in room air till DOL 7 when they are transfer into 75% oxygen chamber and on DOL 12 they are returned into room air. On DOL 17, eyes are enucleated and retinas dissected after euthanasia. Retinas are then stained with Alexa Fluor 488 conjugated isolectin GS-IB4 and mounted on slide for vasculature pattern study.

new born mice = test: Murine OIR trial with progressively increased SB290157 dosage, observation for untoward reactions or side effects; assay type: in vivo, mouse; conditions: i.p. DOL 5; dosage increased from 2.5 to 5, 7.5, 10, 15, 25, 50 mgm/kg; 75% O2 DOL 7-12
Experimental: Standard O2 exposure 75% DOL 7-12; 3) Euthanasia at DOL17, followed by enucleation, removal of the retina and separation from the retina from underlying Pigment Epithelial layer. Flatmount and stain for vessels with IsoLectin was performed by incubating the preparation with goat AB followed by counter-staining with Rhodamine to bring out the presence of active C3a; 4)Microscopy at 2.5× and 40× for: capillary bed anatomy; presence of “ghost vessels” previously described; presence of cellular debris noted previously thought to be pieces of partially destroyed but not digested cell wall; destruction or absence of neurons and glial in the retina surrounding the Optic Nerve Head(from which major blood vessels exit undamaged at least as can be detected by the oxygen exposure); presence or absence of neovascular tufts (a late complication of oxygen damage). An additional trial with Intravitreal Injection will be performed as this paper is prepared.
MATERIALS & METHOD: Litters of black 6 new born mice were divided in half at birth. At DOL seven, one half of the litter were placed in an oxygen chamber maintained at 75%+/−2% oxygen till DOL 12. The oxygen exposed mice were maintained in room air until DOL 17. The control mice were raised in room air until DOL 17 when both halves were euthanized at DOL17. Eyes were enucleated and fixed in 4% paraformaldehyde at 4° C. overnight. […]

rodent C3aR = conditions: cited from earlier work
[3] = 75% oxygen DOL 7-12, DOL 17, vs solvent-injected oxygen-exposed group 4

human C3aR, sequence (Q16581 whole entry): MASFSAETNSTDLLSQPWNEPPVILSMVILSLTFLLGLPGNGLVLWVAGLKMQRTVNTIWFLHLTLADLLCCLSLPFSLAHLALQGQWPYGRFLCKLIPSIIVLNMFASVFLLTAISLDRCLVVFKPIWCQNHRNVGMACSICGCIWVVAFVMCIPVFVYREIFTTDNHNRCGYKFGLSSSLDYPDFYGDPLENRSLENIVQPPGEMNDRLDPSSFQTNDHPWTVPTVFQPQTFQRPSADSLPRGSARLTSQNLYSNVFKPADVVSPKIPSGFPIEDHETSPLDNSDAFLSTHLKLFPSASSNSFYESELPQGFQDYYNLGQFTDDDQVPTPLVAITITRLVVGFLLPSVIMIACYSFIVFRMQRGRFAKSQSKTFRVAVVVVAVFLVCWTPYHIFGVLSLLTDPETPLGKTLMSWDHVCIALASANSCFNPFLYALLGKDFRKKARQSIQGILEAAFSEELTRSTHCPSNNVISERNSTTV

NC(N)=NCCC[C@H](NC(=O)COCC(c1ccccc1)c1ccccc1)C(=O)O [SB290157]
effect in airway neutrophilia (airway neutrophilia): beneficial effects | C3a receptor blockade (human C3aR): blocking | preservation of capillary bed [1]: prevents the destruction of capillary bed; also recorded: preservation of capillary bed | effect on murine OIR (conclusion) ([2]; 75% oxygen DOL 7-12): can attenuate murine OIR | capillary damage in retinal whole mounts [2, 3]: attenuated the damage to the capillary bed; also recorded: significantly less capillary damage | neovascularization tufts [2, 3]: few to no vascular tufts; also recorded: less neovascularization tufts | retinal vasculature / toxicity to forming vascular tissue in room air raised mice ([2]; room air, DOL 17, vs solvent group 2): No evidence of toxicity to forming vascular tissue; also recorded: normal developing vasculature patterns without significant difference | untoward reactions or side effects (new born mice): None were observed | C3a receptor blockade (rodent C3aR): blocking

Reference: US20130345306A1, “IDENTIFICATION OF C3 COMPLEMENT MOLECULE AT THE SITE OF INJURY TO BLOOD VESSELS IN THE RETINA OF OXYGEN EXPOSED ANIMALS” (priority 2011, published 2013)
